{"source": "paper PMC10872723", "about": "(Journal of medicinal chemistry, 2023)", "key": {"WDR5 [1]": {"target": "T1, WDR5 (Homo sapiens, UniProt P61964)", "experiment": "Western blotting of WDR5 protein levels in MV4", "settings": "MV4;11 cells"}, "IKZF1": {"target": "IKZF1 (Homo sapiens, UniProt Q13422)", "sequence (Q13422 whole entry)": "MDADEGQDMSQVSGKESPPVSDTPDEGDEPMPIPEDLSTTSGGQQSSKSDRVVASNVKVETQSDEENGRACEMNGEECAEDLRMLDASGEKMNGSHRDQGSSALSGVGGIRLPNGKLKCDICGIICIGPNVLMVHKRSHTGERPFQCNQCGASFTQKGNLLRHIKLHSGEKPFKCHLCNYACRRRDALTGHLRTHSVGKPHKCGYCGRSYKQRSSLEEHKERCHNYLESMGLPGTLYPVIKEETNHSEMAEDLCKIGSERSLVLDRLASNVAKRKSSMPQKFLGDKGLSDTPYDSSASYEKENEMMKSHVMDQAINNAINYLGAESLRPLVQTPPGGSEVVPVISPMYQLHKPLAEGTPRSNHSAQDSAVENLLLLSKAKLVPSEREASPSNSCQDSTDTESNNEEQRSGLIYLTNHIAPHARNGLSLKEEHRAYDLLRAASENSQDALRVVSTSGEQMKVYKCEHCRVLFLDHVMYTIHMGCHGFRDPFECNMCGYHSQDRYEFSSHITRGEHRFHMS", "experiment": "Western blotting of IKZF1 protein levels in MV4", "settings": "MV4;11 cells"}, "LIMD1": {"target": "LIMD1 (Homo sapiens, UniProt Q9UGP4)", "sequence (Q9UGP4 whole entry)": "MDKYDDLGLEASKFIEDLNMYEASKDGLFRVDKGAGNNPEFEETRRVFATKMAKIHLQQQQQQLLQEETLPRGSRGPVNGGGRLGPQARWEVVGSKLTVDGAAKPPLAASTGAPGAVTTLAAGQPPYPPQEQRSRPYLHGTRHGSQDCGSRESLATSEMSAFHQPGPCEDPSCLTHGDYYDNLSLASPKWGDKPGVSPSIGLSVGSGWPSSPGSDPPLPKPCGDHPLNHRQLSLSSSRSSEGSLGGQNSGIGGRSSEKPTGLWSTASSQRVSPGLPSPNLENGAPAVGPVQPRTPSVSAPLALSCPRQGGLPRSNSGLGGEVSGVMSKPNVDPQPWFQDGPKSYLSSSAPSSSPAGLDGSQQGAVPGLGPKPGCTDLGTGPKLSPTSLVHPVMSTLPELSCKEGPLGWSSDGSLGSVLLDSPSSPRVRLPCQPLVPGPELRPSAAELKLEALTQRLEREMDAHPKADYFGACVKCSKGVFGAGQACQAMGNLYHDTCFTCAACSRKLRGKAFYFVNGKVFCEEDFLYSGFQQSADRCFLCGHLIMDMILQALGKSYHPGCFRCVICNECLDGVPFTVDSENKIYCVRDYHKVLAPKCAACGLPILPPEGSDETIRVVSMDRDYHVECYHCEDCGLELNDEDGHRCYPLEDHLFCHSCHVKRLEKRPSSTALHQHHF", "experiment": "Western blotting of LIMD1 protein levels in MV4", "settings": "MV4;11 cells, 0.1 and 0.5 μM, 18 h (Figure 5A)"}, "MIA PaCa-2 cells": {"system": "MIA PaCa-2 cells", "experiment": "TMT MS-based global proteomic study in MIA PaCa-2 cells", "type": "cell-based, human", "settings": "1.5 μM, 2 h, 4040 quantified proteins, cutoff P value less than 0.01, Log2 fold change greater than 0.5"}, "Mouse PK study": {"experiment": "Mouse PK study", "settings": "75 mg/kg"}, "[2]": {"system": "WDR5-11–VCB ternary complex", "experiment": "ITC binding cooperativity, VCB into WDR5-11 binary complex", "parameters": "species or system human", "settings": "VCB binding to the WDR5-11 binary complex vs VCB into 11"}, "VCB E3 ligase complex": {"target": "VCB E3 ligase complex (Homo sapiens, UniProt P40337)", "sequence (Q15369 whole entry)": "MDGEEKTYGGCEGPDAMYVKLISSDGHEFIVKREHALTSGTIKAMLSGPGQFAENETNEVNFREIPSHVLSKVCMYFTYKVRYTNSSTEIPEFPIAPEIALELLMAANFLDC", "sequence (Q15370 1-104, further chain)": "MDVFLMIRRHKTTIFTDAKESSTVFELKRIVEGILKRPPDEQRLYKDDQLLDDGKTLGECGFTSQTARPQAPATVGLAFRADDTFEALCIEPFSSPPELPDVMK", "sequence (P40337 54-213)": "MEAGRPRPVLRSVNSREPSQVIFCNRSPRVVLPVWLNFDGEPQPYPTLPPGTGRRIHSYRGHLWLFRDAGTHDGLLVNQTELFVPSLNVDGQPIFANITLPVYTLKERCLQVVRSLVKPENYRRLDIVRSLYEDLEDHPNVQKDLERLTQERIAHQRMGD", "experiment": "Isothermal titration calorimetry", "type": "binding"}, "[3]": {"system": "PDAC cell lines including MIA PaCa-2, BxPC-3, HPAF-II, Panc10.05, and PANC-1", "experiment": "Antiproliferative activity in PDAC cell lines", "type": "cell-based, human"}, "WDR5 [4]": {"target": "T1, WDR5", "experiment": "Western blotting of WDR5 degradation in PDAC cell lines", "type": "cell-based", "settings": "18 h; for WDR5 degradation (WB): MIA PaCa-2, BxPC-3, HPAF-II, Panc10.05 and PANC-1 cells, indicated concentrations"}, "WDR5 [5]": {"target": "T1, WDR5", "settings": "MIA PaCa-2 cells"}, "[6]": {"system": "PDAC cell lines including MIA PaCa-2, BxPC-3, HPAF-II, Panc10.05, and PANC-1", "settings": "previously reported; cited from earlier work"}, "WDR5 [7]": {"target": "T1, WDR5", "experiment": "Isothermal titration calorimetry", "type": "binding"}, "WDR5 K296R": {"target": "WDR5 K296R (Homo sapiens, UniProt P61964, K296R)", "experiment": "Immunoblot of WDR5 K296R mutant degradation in HEK293T cells", "type": "cell-based", "settings": "HEK293T cells overexpressing K296R (Dox), indicated concentrations, 3 days"}, "[8]": {"settings": "0.1 and 0.5 μM, 18 h (Figure 5A)"}, "[9]": {"settings": "indicated concentrations, 18 h (Figure 5C)"}, "[10]": {"settings": "indicated concentrations, 18 h (Figure 5B)"}}, "note": "Read-outs that look alike come from different tables or passages of the source.", "data": [{"smiles": "CN1CCN(c2ccc(-c3cccc(CN4CCN(CCNC(=O)CCCCCCCNC(=O)COc5cccc6c5C(=O)N(C5CCC(=O)N(C)C5=O)C6=O)CC4)c3)cc2NC(=O)c2c[nH]c(=O)cc2C(F)(F)F)CC1", "note": "(centres unmarked) [Compound 22, N-(3′-((4-(2-(8-(2-((2-(1-Methyl-2,6-dioxopiperidin-3-yl)-1,3-dioxoisoindolin-4-yl)oxy)acetamido)octanamido)ethyl)piperazin-1-yl)methyl)-4-(4-methylpiperazin-1-yl)-[1,1′-biphenyl]-3-yl)-6-oxo-4-(trifluoromethyl)-1,6-dihydropyridine-3-carboxamide]", "values": [{"measurement": "WDR5 protein levels (WB)", "setting": "WDR5 [1]; [8]", "result": "did not have an effect on the protein levels of WDR5, IKZF1, and LIMD1"}, {"measurement": "IKZF1 protein levels (WB)", "setting": "IKZF1; [8]", "result": "did not have an effect on the protein levels of WDR5, IKZF1, and LIMD1"}, {"measurement": "LIMD1 protein levels (WB)", "setting": "LIMD1", "result": "did not have an effect on the protein levels of WDR5, IKZF1, and LIMD1"}]}, {"smiles": "Cc1ncsc1-c1ccc(CNC(=O)[C@@H]2C[C@@H](O)CN2C(=O)[C@@H](NC(=O)CNC(=O)c2ccc(F)c(-c3ccc(N4C[C@@H](C)N(C)[C@@H](C)C4)c(NC(=O)c4c[nH]c(=O)cc4C(F)(F)F)c3)c2)C(C)(C)C)cc1", "note": "[Compound 11, N-(2′-Fluoro-5′-((2-(((S)-1-((2S,4R)-4-hydroxy-2-((4-(4-methylthiazol-5-yl)benzyl)carbamoyl)pyrrolidin-1-yl)-3,3-dimethyl-1-oxobutan-2-yl)amino)-2-oxoethyl)carbamoyl)-4-((3S,5R)-3,4,5-trimethylpiperazin-1-yl)-[1,1′-biphenyl]-3-yl)-6-oxo-4-(trifluoromethyl)-1,6-dihydropyridine-3-carboxamide]", "values": [{"measurement": "Proteome-wide degradation selectivity", "setting": "MIA PaCa-2 cells", "result": "WDR5 is the only protein whose abundance was significantly decreased"}, {"measurement": "Tmax", "setting": "Mouse PK study; male, Swiss albino, mouse, plasma, ip", "result": 30, "unit": "min"}, {"measurement": "Clinical signs during the PK study", "setting": "Mouse PK study; mice, single IP injection", "result": "no clinical signs were observed"}, {"measurement": "Plasma concentration maintained for the initial 4 h", "setting": "Mouse PK study; mice, single IP injection", "result": "around 1 μM"}, {"measurement": "Plasma concentration maintained over 12 h", "setting": "Mouse PK study; mice, single IP injection", "result": "above 100 nM"}, {"measurement": "Binding cooperativity α = KD (binary)/KD (ternary)", "setting": "[2]", "result": 2.30}, {"measurement": "Kd", "setting": "VCB E3 ligase complex", "result": "534 ± 48", "unit": "nM"}, {"measurement": "GI50", "setting": "[3]; Homo sapiens, 144 h", "result": "4000 to 32000", "unit": "nM"}, {"measurement": "WDR5 degradation (WB)", "setting": "WDR5 [4]", "result": "induced WDR5 degradation in a concentration-dependent manner"}, {"measurement": "Hook effect in WDR5 degradation", "setting": "WDR5 [4]; PDAC cells, concentrations up to 50 μM", "result": "no “hook effect” observed"}, {"measurement": "Time at which maximal WDR5 degradation achieved", "setting": "WDR5 [5]; 0.1 μM", "result": 24, "unit": "h"}, {"measurement": "Time at which significant WDR5 reduction observed", "setting": "WDR5 [5]; 0.1 μM", "result": 2, "unit": "h"}, {"measurement": "WDR5 protein levels (WB verification for proteomics)", "setting": "WDR5 [5]; 1.5 μM, 2 h (Figure S5)", "result": "significantly reduced WDR5 protein levels"}, {"measurement": "WDR5 protein levels (WB)", "setting": "WDR5 [5]; 0.1 and 0.5 μM, 18 h (Figure 3)", "result": "effectively decreased the WDR5 protein levels"}]}, {"smiles": "CN1CCN(c2ccc(-c3cccc(CN4CCN(CCNC(=O)CCCCNC(=O)COc5cccc6c5C(=O)N(C5CCC(=O)N(C)C5=O)C6=O)CC4)c3)cc2NC(=O)c2c[nH]c(=O)cc2C(F)(F)F)CC1", "note": "(centres unmarked) [Compound 24, N-(3′-((4-(2-(5-(2-((2-(1-Methyl-2,6-dioxopiperidin-3-yl)-1,3-dioxoisoindolin-4-yl)oxy)acetamido)pentanamido)ethyl)piperazin-1-yl)methyl)-4-(4-methylpiperazin-1-yl)-[1,1′-biphenyl]-3-yl)-6-oxo-4-(trifluoromethyl)-1,6-dihydropyridine-3-carboxamide]", "values": [{"measurement": "WDR5 protein levels (WB)", "setting": "WDR5 [1]; [8]", "result": "did not have an effect on the protein levels of WDR5, IKZF1, and LIMD1"}, {"measurement": "IKZF1 protein levels (WB)", "setting": "IKZF1; [8]", "result": "did not have an effect on the protein levels of WDR5, IKZF1, and LIMD1"}, {"measurement": "LIMD1 protein levels (WB)", "setting": "LIMD1", "result": "did not have an effect on the protein levels of WDR5, IKZF1, and LIMD1"}]}, {"smiles": "CN1CCN(c2ccc(-c3cccc(CN4CCOCC4)c3)cc2NC(=O)c2c[nH]c(=O)cc2C(F)(F)F)CC1", "note": "[OICR-9429]", "values": [{"measurement": "Antiproliferative activity", "setting": "[6]", "result": "lack of antiproliferative activity"}]}, {"smiles": "CN1CCN(c2ccc(-c3cccc(CN4CCN(CCNC(=O)CCCCCCCNC(=O)COc5cccc6c5C(=O)N(C5CCC(=O)NC5=O)C6=O)CC4)c3)cc2NC(=O)c2c[nH]c(=O)cc2C(F)(F)F)CC1", "note": "(centres unmarked) [Compound 21, N-(3′-((4-(2-(8-(2-((2-(2,6-Dioxopiperidin-3-yl)-1,3-dioxoisoindolin-4-yl)oxy)acetamido)octanamido)ethyl)piperazin-1-yl)methyl)4-(4-methylpiperazin-1-yl)-[1,1′-biphenyl]-3-yl)-6-oxo-4-(trifluoromethyl)-1,6-dihydropyridine-3-carboxamide]", "values": [{"measurement": "Effectiveness in downregulating WDR5 protein levels relative to other degraders", "setting": "WDR5 [1]; [8]", "result": "slightly more effective than MS40 and 23"}, {"measurement": "WDR5 protein levels (WB)", "setting": "WDR5 [1]; [8]", "result": "effectively downregulated WRD5 protein levels"}, {"measurement": "IKZF1 protein levels (WB)", "setting": "IKZF1; [8]", "result": "completely ineffective in degrading neo-substrate IKZF1"}, {"measurement": "LIMD1 protein levels (WB)", "setting": "LIMD1", "result": "completely ineffective in degrading neo-substrate IKZF1, and protein LIMD1"}, {"measurement": "WDR5 protein levels (WB)", "setting": "WDR5 [5]; [9]", "result": "effectively reduced the cellular WDR5 protein levels"}]}, {"smiles": "C[C@@H]1CN(c2ccc(-c3cc(C(=O)NCCCCCCCNC(=O)COc4cccc5c4C(=O)N(C4CCC(=O)NC4=O)C5=O)ccc3F)cc2NC(=O)c2c[nH]c(=O)cc2C(F)(F)F)C[C@H](C)N1C", "note": "(stereo partly drawn) [Compound 25, N-(5′-((7-(2-((2-(2,6-Dioxopiperidin-3-yl)-1,3-dioxoisoindolin-4-yl)oxy)acetamido)heptyl)carbamoyl)-2′-fluoro-4-((3S,5R)-3,4,5-trimethylpiperazin-1-yl)-[1,1′-biphenyl]-3-yl)-6-oxo-4-(trifluoromethyl)-1,6-dihydropyridine-3-carboxamide]", "values": [{"measurement": "IKZF1 protein levels (WB)", "setting": "IKZF1; [10]", "result": "had no effect on IKZF1 protein levels"}, {"measurement": "WDR5 protein levels (WB)", "setting": "WDR5 [5]; [9]", "result": "effectively reduced the cellular WDR5 protein levels"}]}, {"smiles": "Cc1ncsc1-c1ccc(CNC(=O)[C@H]2C[C@H](O)CN2C(=O)[C@@H](NC(=O)CNC(=O)c2ccc(F)c(-c3ccc(N4C[C@@H](C)N(C)[C@@H](C)C4)c(NC(=O)c4c[nH]c(=O)cc4C(F)(F)F)c3)c2)C(C)(C)C)cc1", "note": "[Compound 27, N-(2′-Fluoro-5′-((2-(((S)-1-((2R,4S)-4-hydroxy-2-((4-(4-methylthiazol-5-yl)benzyl)carbamoyl)pyrrolidin-1-yl)-3,3-dimethyl-1-oxobutan-2-yl)amino)-2-oxoethyl)carbamoyl)-4-((3S,5R)-3,4,5-trimethylpiperazin-1-yl)-[1,1′-biphenyl]-3-yl)-6-oxo-4-(trifluoromethyl)-1,6-dihydropyridine-3-carboxamide]", "values": [{"measurement": "KD to VCB (ITC)", "setting": "VCB E3 ligase complex; mean ± SD, three independent experiments", "result": "did not display any noticeable binding to VCB"}, {"measurement": "Antiproliferative activity", "setting": "[3]; PDAC cells, 6 day treatment", "result": "lack of antiproliferative activity"}, {"measurement": "Kd", "setting": "WDR5 [7]", "result": "106 ± 43", "unit": "nM"}, {"measurement": "WDR5 degradation (WB)", "setting": "WDR5 [4]", "result": "unable to degrade WDR5 in all tested pancreatic cancer cells"}]}, {"smiles": "C[C@@H]1CN(c2ccc(-c3cc(C(=O)NCCCCCCCNC(=O)COc4cccc5c4C(=O)N(C4CCC(=O)N(C)C4=O)C5=O)ccc3F)cc2NC(=O)c2c[nH]c(=O)cc2C(F)(F)F)C[C@H](C)N1C", "note": "(stereo partly drawn) [Compound 26, N-(2′-Fluoro-5′-((7-(2-((2-(1-methyl-2,6-dioxopiperidin-3-yl)-1,3-dioxoisoindolin-4-yl)oxy)acetamido)heptyl)carbamoyl)-4-((3S,5R)-3,4,5-trimethylpiperazin-1-yl)-[1,1′-biphenyl]-3-yl)-6-oxo-4-(trifluoromethyl)-1,6-dihydropyridine-3-carboxamide]", "values": [{"measurement": "WDR5 protein levels (WB)", "setting": "WDR5 [1]; indicated concentrations, 18 h (Figures 5B and S1)", "result": "did not affect the protein levels of WDR5 and IKZF1"}, {"measurement": "IKZF1 protein levels (WB)", "setting": "IKZF1; [10]", "result": "did not affect the protein levels of WDR5 and IKZF1"}]}, {"smiles": "Cc1ncsc1-c1ccc([C@H](C)NC(=O)[C@@H]2C[C@@H](O)CN2C(=O)[C@@H](NC(=O)CNC(=O)c2ccc(F)c(-c3ccc(N4C[C@@H](C)N(C)[C@@H](C)C4)c(NC(=O)c4c[nH]c(=O)cc4C(F)(F)F)c3)c2)C(C)(C)C)cc1", "note": "[MS67]", "values": [{"measurement": "Degradation of WDR5 K296R mutant", "setting": "WDR5 K296R", "result": "resistant to the MS67 treatment"}]}, {"smiles": "CN1CCN(c2ccc(-c3cccc(CN4CCN(CCNC(=O)CCCCNC(=O)COc5cccc6c5C(=O)N(C5CCC(=O)NC5=O)C6=O)CC4)c3)cc2NC(=O)c2c[nH]c(=O)cc2C(F)(F)F)CC1", "note": "(centres unmarked) [Compound 23, N-(3′-((4-(2-(5-(2-((2-(2,6-Dioxopiperidin-3-yl)-1,3-dioxoisoindolin-4-yl)oxy)acetamido)pentanamido)ethyl)piperazin-1-yl)methyl)-4-(4-methylpiperazin-1-yl)-[1,1′-biphenyl]-3-yl)-6-oxo-4-(trifluoromethyl)-1,6-dihydropyridine-3-carboxamide]", "values": [{"measurement": "WDR5 protein levels (WB)", "setting": "WDR5 [1]; [8]", "result": "to a less extent effectively downregulated WRD5 protein levels"}, {"measurement": "IKZF1 protein levels (WB)", "setting": "IKZF1; [8]", "result": "completely ineffective in degrading neo-substrate IKZF1"}, {"measurement": "LIMD1 protein levels (WB)", "setting": "LIMD1", "result": "completely ineffective in degrading neo-substrate IKZF1, and protein LIMD1"}]}]}
